Data as given in patent publication US20050209278A1, “Piperidinyl- and piperazinyl-sulfonylmethyl hydroxamic acids and their use as protease inhibitors” (priority 2002, published 2005).
Counter-ions that a name gives are not always drawn.

target: T1, MMP-14 (Homo sapiens, UniProt P50281); experiment: In vitro MMP inhibition, Ki determination (fluorogenic substrate II); assay type: biochemical; settings: MMP-14 Ki, value not in parenthesis
T1 construct: The catalytic domain enzyme was expressed in E. coli inclusion bodies, solubilized in urea; made in house
Experimental: Several hydroxamic acids and salts thereof were analyzed in in vitro assays to determine their ability to inhibit the MMP cleavage of peptide substrates. […] and IC50 constants were calculated from the assayed hydroxamic acid-MMP interactions.
Human recombinant MMP-1, MMP-2, MMP-9, MMP-13, and MMP-14 were used in this assay. All enzymes were prepared in Assignee's laboratories following usual laboratory procedures. Protocols for the preparation and use of these enzymes are available in the scientific literature. See, e.g., Enzyme Nomenclature (Academic Press, San Diego, Calif., 1992) (and the citations therein). See also, Freije et al., “Molecular cloning and expression of collagenase-3, a novel human matrix metalloproteinase produced by breast carcinomas,” J Biol. Chem., 269(24), 16766-16773 (1994).
The MMP-14 full length cDNA was provided by Dr. Gregory Goldberg of Washington University (St. Louis, Mo.). The catalytic domain enzyme was expressed in E. coli inclusion bodies, solubilized in urea, purified on a preparative […] reverse phase HPLC column, and then refolded in the presence of zinc acetate and purified for use.
All MMPs were activated using 4-aminophenylmercuric acetate (“APMA”, Sigma Chemical, St. Louis, Mo.) or trypsin. MMP-9 also was activated using human recombinant MMP-3 (purified in Assignee's laboratory following standard cloning and purification techniques).
Two fluorogenic, methoxycoumarin-containing polypeptide substrates were used in the MMP inhibition assays: [drawing 427] Here, “Dpa” is 3-(2,4-dinitrophenyl)-L-2,3-diaminopropionyl group, and “MCA” is 7-methoxycoumarin-4-yl acetyl. Substrate (I) was purchased from Baychem (Redwood City, Calif.), and substrate II was prepared Assignee's laboratory. Substrate I was used in the IC50 determination assays, while substrate II was used in the Ki determination assays. In the absence of MMP inhibitory activity, either substrate is cleaved at the Gly-Leu peptide bond. This cleavage separates the highly fluorogenic peptide from the 2,4-dinitrophenyl quencher, thus resulting in increase of fluorescent intensity.
The stock solutions of the assayed hydroxamic acids (or salts thereof) were prepared in 1% dimethyl sulfoxide (DMSO). These stock solutions were diluted in Buffer A (100 mM Tris-HCl, 100 mM NaCl, 10 mM CaCl2, 0.05% polyoxyethylene 23 lauryl ether, pH 7.5) to obtain solutions with different hydroxamic acid concentrations, i.e., assay solutions with different concentrations of the assayed MMP inhibitory compound. The experiment controls contained the same amount of Buffer A/DMSO as the assayed sample, but contained no hydroxamic acid (or salt thereof).
The assays from which the Ki determinations were made were performed as follows. The assayed hydroxamic acid samples were incubated in separate wells of untreated white polystyrene plates (Nunc Nalgene International, Rochester, N.Y.), and analyzed on a Tecan SpectraFlour Plus plate reader. The excitation wavelength was 330 nm, and the emission wavelength—420 nm. All samples (assayed hydroxamic acids and controls) were incubated in separate plate wells at room temperature for 1 hr in the presence of 4 μM of MMP substrate (II). In the absence of MMP inhibitory activity, substrate II was cleaved at the Gly-Leu bond resulting in an increase of relative fluorescence. Inhibition was observed as a reduced rate of this increase in relative fluorescence. The various hydroxamic acids were analyzed using a single low enzyme concentration with a single substrate concentration fixed at or below the Km. This protocol is a modification of method by Knight et al., FEBS Lett., 296(3), 263-266 (1992). Apparent inhibitory constants were determined by non-linear regression of reaction velocity as a function of inhibitor and enzyme concentration using Morrison's equation, as described by Kuzmic, Anal. Biochem. 286, 45-50 (2000).

Structure (SMILES) | Ki
O=C(NO)C1(S(=O)(=O)N2CCN(c3ccc(COCC(F)(F)C(F)(F)C(F)(F)C(F)F)cc3)CC2)CCOCC1 [Example 68] | > 10 µM
O=C(NO)C1(S(=O)(=O)N2CCN(c3ccc(COCC(F)(F)C(F)(F)C(F)(F)F)cc3)CC2)CCOCC1 [Example 69] | > 10 µM

same assay, conditions: human recombinant enzyme (catalytic domain); 4 μM substrate II; room temperature, 1 hr; read-out: MMP-14 Ki

Structure (SMILES) | Ki
O=C(NO)C1(S(=O)(=O)N2CCC(c3ccc(OCC(F)(F)F)cc3)CC2)CCN(C2CC2)CC1 [Example 25, 1-cyclopropyl-N-hydroxy-4-({4-[4-(2,2,2-trifluoroethoxy)phenyl]piperidin-1-yl}sulfonyl)piperidine-4-carboxamide Hydrochloride] | 5.38 µM
CCCCCCCCC1CCN(S(=O)(=O)C2(C(=O)NO)CCOCC2)CC1 [Example 26, 4-(4-octyl-piperidine-1-sulfonyl)-tetrahydro-pyran-4-carboxylic Acid Hydroxyamide] | 0.657 µM
O=C(NO)C1(S(=O)(=O)N2CCC(c3cnc(OCC(F)(F)C(F)(F)F)cn3)CC2)CCOCC1 [Example 27] | 6.2 µM

same assay, conditions: value not in parenthesis; read-out: MMP-14 Ki

Structure (SMILES) | Ki
CCCCCc1cnc(N2CCN(S(=O)(=O)C3(C(=O)NO)CCOCC3)CC2)s1 [Example 56] | 0.795 µM
O=C(NO)C1(S(=O)(=O)N2CCN(c3ccc(-c4ccc(Cl)cc4)cn3)CC2)CCOCC1 [Example 60] | 0.328 µM
C=CCCOC(=O)N1CCC(C(=O)NO)(S(=O)(=O)N2CCN(c3ccc(OCCCC)cc3)CC2)CC1 [Example 101] | 4.33 µM
COCCN1CCC(C(=O)NO)(S(=O)(=O)N2CCN(c3ccc(OCCCC(F)(F)F)cc3F)CC2)CC1 [Example 102] | 7.13 µM
O=C(NO)C1(S(=O)(=O)N2CCN(c3ncc(Br)cn3)CC2)CCOCC1 [Example 103] | 0.227 µM
O=C(NO)C1(S(=O)(=O)N2CCN(c3ncc(Br)cn3)CC2)CCOCC1 [Example 104] | 0.305 µM
O=C(NO)C1(S(=O)(=O)N2CCN(c3ncccn3)CC2)CCOCC1 [Example 106] | 7.51 µM
O=C(NO)C1(S(=O)(=O)N2CCN(c3ncccn3)CC2)CCOCC1 [Example 107] | 6 µM
COc1ccc(N2CCN(S(=O)(=O)C3(C(=O)NO)CCOCC3)CC2)nc1 [Example 108] | > 10 µM
COc1ccc(N2CCN(S(=O)(=O)C3(C(=O)NO)CCOCC3)CC2)nc1 [Example 109] | > 10 µM
CCCCCCCCCc1cnc(N2CCN(S(=O)(=O)C3(C(=O)NO)CCOCC3)CC2)nc1 [Example 110] | > 10 µM
CCCCCCCCCc1cnc(N2CCN(S(=O)(=O)C3(C(=O)NO)CCOCC3)CC2)nc1 [Example 111] | > 10 µM
O=C(NO)C1(S(=O)(=O)N2CCN(c3ccc(OCCCC(F)(F)F)cc3)CC2)CCN(c2cnccn2)CC1 [Example 112] | 1.17 µM
CCCCOc1ccc(N2CCN(S(=O)(=O)C3(C(=O)NO)CCN(C(=O)OCCF)CC3)CC2)cc1 [Example 113] | 2.33 µM
CCc1ccc(N2CCN(S(=O)(=O)C3(C(=O)NO)CCOCC3)CC2)nc1 [Example 114] | 0.097 µM
CCCCOc1ccc(N2CCN(S(=O)(=O)C3(C(=O)NO)CCN(C(=O)OCC(F)(F)F)CC3)CC2)cc1 [Example 115] | > 10 µM
CC(C)(C)N1CCC(C(=O)NO)(S(=O)(=O)N2CCN(c3ccc(OCCCC(F)(F)F)cc3F)CC2)CC1 [Example 116] | 8.03 µM
O=C(NO)C1(S(=O)(=O)N2CCN(c3ccc(OCCCC(F)(F)F)cc3F)CC2)CCOCC1 [Example 117] | 5.69 µM
CCCCOc1ccc(N2CCN(S(=O)(=O)C3(C(=O)NO)CCN(C(=O)NCCOC)CC3)CC2)cc1 [Example 118] | 2.6 µM
COCCN1CCC(C(=O)NO)(S(=O)(=O)N2CCN(c3ccc(OCC(F)(F)F)cc3)CC2)CC1 [Example 119] | 4.38 µM
CCCCOc1ccc(N2CCN(S(=O)(=O)C3(C(=O)NO)CCN(c4ccc(O)cc4)CC3)CC2)cc1 [Example 121] | > 10 µM
O=C(c1cccnc1)N1CCC(C(=O)NO)(S(=O)(=O)N2CCN(c3ccc(OCCCC(F)(F)F)cc3)CC2)CC1 [Example 122] | 3.09 µM
CCCCOc1ccc(N2CCN(S(=O)(=O)C3(C(=O)NO)CCN(C(=S)N(C)C)CC3)CC2)cc1 [Example 123] | 5.65 µM
CCCCOc1ccc(N2CCN(S(=O)(=O)C3(C(=O)NO)CCN(C(=O)N4CCOCC4)CC3)CC2)cc1 [Example 124] | > 10 µM

Structure (SMILES) | Ki
CCCCOc1ccc(N2CCN(S(=O)(=O)C3(C(=O)NO)CCN(c4ccc(C)cn4)CC3)CC2)cc1 [Example 125] | 2.76 µM
CCCCOc1ccc(N2CCN(S(=O)(=O)C3(C(=O)NO)CCN4CCCC4C3)CC2)cc1F (centres unmarked) [Example 126] | > 10 µM
CCCCOc1ccc(N2CCN(S(=O)(=O)C3(C(=O)NO)CCN(C(=O)c4cc5ccccc5o4)CC3)CC2)cc1 [Example 127] | > 10 µM
CC(C)CCOc1ccc(N2CCN(S(=O)(=O)C3(C(=O)NO)CCN(C4CC4)CC3)CC2)cc1 [Example 128] | 5.38 µM
CCCCOc1ccc(N2CCN(S(=O)(=O)C3(C(=O)NO)CCN(c4ccc(OCCOC)nn4)CC3)CC2)cc1 [Example 129] | 1.3 µM
CCCCOc1ccc(N2CCN(S(=O)(=O)C3(C(=O)NO)CCN(c4nccc(C(F)(F)F)n4)CC3)CC2)cc1 [Example 130] | > 10 µM
CCCCOc1ccc(N2CCN(S(=O)(=O)C3(C(=O)NO)CCN(c4ccc(C)nc4)CC3)CC2)cc1 [Example 131] | 3.66 µM
O=C1c2ccccc2C(=O)N1CCCCc1ccc(N2CCN(S(=O)(=O)C3(C(=O)NO)CCOCC3)CC2)nc1 [Example 132] | 0.158 µM
CC(C)CCc1ccc(N2CCN(S(=O)(=O)C3(C(=O)NO)CCOCC3)CC2)nc1 [Example 133] | 2.12 µM
CCCc1ccc(N2CCN(S(=O)(=O)C3(C(=O)NO)CCOCC3)CC2)nc1 [Example 136] | 0.159 µM
Cc1ccc(N2CCN(S(=O)(=O)C3(C(=O)NO)CCOCC3)CC2)nc1 [Example 138] | 0.0666 µM
CCCCOc1ccc(N2CCN(S(=O)(=O)C3(C(=O)NO)CCN(c4cc(C)ccn4)CC3)CC2)cc1 [Example 139] | 1.26 µM
CCCCOc1ccc(N2CCN(S(=O)(=O)C3(C(=O)NO)CCN(c4cnccn4)CC3)CC2)cc1 [Example 140] | 0.945 µM
CCCCOc1ccc(N2CCN(S(=O)(=O)C3(C(=O)NO)CCN(C(=O)OCCOC)CC3)CC2)cc1 [Example 141] | 1.14 µM
CCCCOc1ccc(N2CCN(S(=O)(=O)C3(C(=O)NO)CCN(c4ccc(OC)nc4)CC3)CC2)cc1 [Example 142] | 2.63 µM
CCCCOc1ccc(N2CCN(S(=O)(=O)C3(C(=O)NO)CCN(C(=O)c4cc5ccccc5s4)CC3)CC2)cc1 [Example 143] | > 10 µM
COCCN1CCC(C(=O)NO)(S(=O)(=O)N2CCN(c3ccc(OCC(F)(F)C(F)(F)F)cc3)CC2)CC1 [Example 144] | > 10 µM
CCCCOc1ccc(N2CCN(S(=O)(=O)C3(C(=O)NO)CCOCC3)CC2)cc1 [Example 145] | 2.35 µM
CCCCc1ccc(N2CCN(S(=O)(=O)C3(C(=O)NO)CCN(c4ccc(C)cc4)CC3)CC2)cc1 [Example 146] | 8.66 µM
CCCCCc1ccc(N2CCN(S(=O)(=O)C3(C(=O)NO)CCN(c4ccc(C)cc4)CC3)CC2)cc1 [Example 147] | > 10 µM
COCCN1CCC(C(=O)NO)(S(=O)(=O)N2CCN(c3ccc(OCCC(C)C)cc3)CC2)CC1 [Example 148] | 6.98 µM
CCCCOc1ccc(N2CCN(S(=O)(=O)C3(C(=O)NO)CCN(c4ccccn4)CC3)CC2)cc1 [Example 149] | 2.66 µM
CCCCOc1ccc(N2CCN(S(=O)(=O)C3(C(=O)NO)CCN(c4nc5ccccc5o4)CC3)CC2)cc1 [Example 150] | 8.65 µM
O=C(NO)C1(S(=O)(=O)N2CCN(c3ccc(SC(F)(F)F)cc3)CC2)CCN(Cc2ccccc2)CC1 [Example 152] | 2.24 µM
